The source of these data is US8519128B2, “Pyripyropene derivatives having an ACAT2-inhibiting activity” (The Kitasato Institute, priority 2007, dated 2013).

The target in this test is T1, ACAT 2 (Mus musculus, UniProt O88908).
T1 construct: The source of ACAT 2 enzyme used was a membrane fraction derived from mouse liver microsome; from tissue; host or cells: mouse liver (microsome fraction)
T1 sequence (O88908 1-525): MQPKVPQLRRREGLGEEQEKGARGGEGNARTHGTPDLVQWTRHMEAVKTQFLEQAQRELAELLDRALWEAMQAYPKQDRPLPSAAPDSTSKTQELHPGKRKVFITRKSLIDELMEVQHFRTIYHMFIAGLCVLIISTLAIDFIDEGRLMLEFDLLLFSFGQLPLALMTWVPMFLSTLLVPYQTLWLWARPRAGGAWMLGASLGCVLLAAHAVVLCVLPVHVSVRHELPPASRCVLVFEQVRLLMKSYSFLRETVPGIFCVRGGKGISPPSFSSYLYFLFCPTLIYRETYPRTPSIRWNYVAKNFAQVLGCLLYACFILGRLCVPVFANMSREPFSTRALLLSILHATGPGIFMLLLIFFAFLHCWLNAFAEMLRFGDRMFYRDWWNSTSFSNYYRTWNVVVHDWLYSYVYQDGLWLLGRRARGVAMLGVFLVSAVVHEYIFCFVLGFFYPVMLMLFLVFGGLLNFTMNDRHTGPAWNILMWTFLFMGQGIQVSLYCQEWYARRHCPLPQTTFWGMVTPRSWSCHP
In words: ACAT-inhibiting activity, mouse liver microsome membrane fraction, [14C]oleoyl-CoA. The class given is biochemical. The following applies: for Specific activity: (inhibitory activity of test compound)/(inhibitory activity of pyripyropene A): relative to pyripyropene A. The protocol:
The source of ACAT 2 enzyme used was a membrane fraction derived from mouse liver microsome. Mouse liver was homogenized in buffer solution A (50 mM Tris-HCl (pH 7.8), 1 mM ethylenediamine tetraacetate, and 1 mM phenylmethanesulfonyl fluoride) using a homogenizer of the Potter type (Tokyo-RIKO). The homogenate was centrifuged at 12000×g, and the supernatant was ultracentrifuged at 100000×g. The sediment was taken as a microsome fraction, and this fraction was adjusted to have a protein concentration of 5 mg/ml using buffer solution A.
The chloroform layer was evaporated to dryness and was used to spot a thin layer chromatography plate (silica gel plate, Merck, 0.5 mm thickness). Elution for separation was carried out using a solvent of hexane/diethyl ether/acetic acid (70:30:1, v/v).
For orientation: Microsomes from liver hold many membrane-bound enzymes, among them those of drug oxidation.

Where [1] appears, read: mouse liver microsome, 5 minutes at 37° C.

Where two headings read alike, the source gives them in different places.

One may read the IC50 as the concentration that inhibits the measured activity by half. Higher therefore signals a need for much substance.

With `COc1ccc(C(=O)O[C@H]2CC3C4(C)COC(c5ccccc5)O[C@H]4CC[C@]3(C)C3[C@@H](O)c4c(cc(-c5cccnc5)oc4=O)O[C@@]32C)cc1` (stereo partly shown) [PRD 044, 1,11-O-benzylidene-7-O-p-methoxybenzoyl-1,7,11-trideacetylpyripyropene A], the “Specific activity: (inhibitory activity of test compound)/(inhibitory activity of pyripyropene A)” value is on record as “+++ (50 > specific activity > 10)”. This molecule came in with an IC50 under setting [1] of 10 to 100 nM.

On to `CC(=O)OCC1(C)C2C[C@H](OC(=O)c3ccccc3C)[C@@]3(C)Oc4cc(-c5cccnc5)oc(=O)c4[C@H](O)C3[C@@]2(C)CC[C@@H]1OC(C)=O` (stereo partly shown) [PRD 007, 7-o-methylbenzoyl-7-deacetylpyripyropene A], for which the “Specific activity: (inhibitory activity of test compound)/(inhibitory activity of pyripyropene A)” value is recorded as “++++ (100 > specific activity > 50)”.

As for `COc1ccc(CC(=O)O[C@H]2CC3C(C)(COC(C)=O)[C@@H](OC(C)=O)CC[C@]3(C)C3[C@@H](O)c4c(cc(-c5cccnc5)oc4=O)O[C@@]32C)cc1` (stereo partly shown) [PRD 087, 7-O-4-methoxyphenylacetyl-7-deacetylpyripyropene A], the “Specific activity: (inhibitory activity of test compound)/(inhibitory activity of pyripyropene A)” value was “+ (5 > specific activity > 1)”. Under setting [1], this molecule came in with an IC50 of 100 to 1000 nM.

Regarding `CC(=O)OCC1(C)C2C[C@H](OC(=O)C3CCCC3)[C@@]3(C)Oc4cc(-c5cccnc5)oc(=O)c4[C@H](O)C3[C@@]2(C)CC[C@@H]1OC(C)=O` (stereo partly shown) [PRD 075, 7-O-cyclopentanecarboxyl-7-deacetylpyripyropene A], the IC50 lay in the range of 10 to 100 nM and the “Specific activity: (inhibitory activity of test compound)/(inhibitory activity of pyripyropene A)” value is given as “++ (10 > specific activity > 5)”.

For the molecule `CC(=O)OCC1(C)C(OC(C)=O)CCC2(C)C1CC(OC(=O)c1ccc(C)cc1)C1(C)Oc3cc(-c4cccnc4)oc(=O)c3C(O)C21` (stereo not shown) [PRD 009], the “Specific activity: (inhibitory activity of test compound)/(inhibitory activity of pyripyropene A)” value is on record as “++++ (100 > specific activity > 50)”.

As to `CC12COC(c3ccccc3)O[C@H]1CC[C@@]1(C)C2C[C@H](OC(=O)c2ccccc2F)[C@@]2(C)Oc3cc(-c4cccnc4)oc(=O)c3[C@H](O)C12` (stereo partly shown) [PRD 046, 1,11-O-benzylidene-7-O-o-fluorobenzoyl-1,7,11-trideacetylpyripyropene A], the “Specific activity: (inhibitory activity of test compound)/(inhibitory activity of pyripyropene A)” value is on record as “+++ (50 > specific activity > 10)”. Besides, the concentration for half-maximal inhibition (IC50) under setting [1] was in the range of 10 to 100 nM.

`COCCOCO[C@H]1CC2C(C)(COC(C)=O)[C@@H](OC(C)=O)CC[C@]2(C)C2[C@@H](O)c3c(cc(-c4cccnc4)oc3=O)O[C@@]21C` (stereo partly shown) [PRD 055, 7-deacetyl-7-O-methoxyethoxymethylpyripyropene A]: the “Specific activity: (inhibitory activity of test compound)/(inhibitory activity of pyripyropene A)” value is listed as “+++ (50 > specific activity > 10)”. The same molecule displayed an IC50 under setting [1] of 10 to 100 nM.

As to `CC12COC(c3ccccc3)O[C@H]1CC[C@@]1(C)C2C[C@H](OC(=O)c2ccc(C=O)cc2)[C@@]2(C)Oc3cc(-c4cccnc4)oc(=O)c3[C@H](O)C12` (stereo partly shown) [PRD 054, 1,11-O-benzylidene-7-O-p-formylbenzoyl-1,7,11-trideacetylpyripyropene A], the “Specific activity: (inhibitory activity of test compound)/(inhibitory activity of pyripyropene A)” value was “+ (5 > specific activity > 1)”. Under setting [1], this molecule displayed an IC50 of 10 to 100 nM.

Consider `CC(=O)OCC1(C)C2C[C@H](OC(=O)c3ccccc3)[C@@]3(C)Oc4cc(-c5cccnc5)oc(=O)c4[C@H](O)C3[C@@]2(C)CC[C@@H]1OC(C)=O` (stereo partly shown) [PRD 027, 7-benzoyl-7-deacetylpyripyropene A], for which the “Specific activity: (inhibitory activity of test compound)/(inhibitory activity of pyripyropene A)” value is listed as “+++ (50 > specific activity > 10)”. Under setting [1], this molecule displayed a half-maximal inhibitory concentration (IC50) of 10 to 100 nM.

In the case of `CC(=O)OCC1(C)C2C[C@@H](I)[C@@]3(C)Oc4cc(-c5cccnc5)oc(=O)c4[C@H](O)C3[C@@]2(C)CC[C@@H]1OC(C)=O` (stereo partly drawn) [PRD 064, 7-(R)-iodo-7-(S)-deacetylpyripyropene A], the “Specific activity: (inhibitory activity of test compound)/(inhibitory activity of pyripyropene A)” value is on record as “+ (5 > specific activity > 1)”. Under setting [1], the half-inhibitory concentration (IC50) was 100 to 1000 nM.

Turning to `CC(=O)OCC1(C)C2C=C[C@@]3(C)Oc4cc(-c5cccnc5)oc(=O)c4[C@H](O)C3[C@@]2(C)CC[C@@H]1OC(C)=O` (stereo partly shown) [PRD 061, 7,8-olefinpyripyropene A], the IC50 fell in the range of 100 to 1000 nM and the “Specific activity: (inhibitory activity of test compound)/(inhibitory activity of pyripyropene A)” value was “+ (5 > specific activity > 1)”.

Turning to `C=Cc1ccc(C(=O)O[C@H]2CC3C(C)(COC(C)=O)[C@@H](OC(C)=O)CC[C@]3(C)C3[C@@H](O)c4c(cc(-c5cccnc5)oc4=O)O[C@@]32C)cc1` (stereo partly shown) [PRD 014, 7-p-vinylbenzoyl-7-deacetylpyripyropene A], the “Specific activity: (inhibitory activity of test compound)/(inhibitory activity of pyripyropene A)” value is given as “++ (10 > specific activity > 5)”.

On to `CC12COC(c3ccccc3)O[C@H]1CC[C@@]1(C)C2C[C@H](OC(=O)c2ccc(Br)cc2)[C@@]2(C)Oc3cc(-c4cccnc4)oc(=O)c3[C@H](O)C12` (stereo partly shown) [PRD 053, 1,11-O-benzylidene-7-O-p-bromobenzoyl-1,7,11-trideacetylpyripyropene A], for which the “Specific activity: (inhibitory activity of test compound)/(inhibitory activity of pyripyropene A)” value is “+ (5 > specific activity > 1)”. For the same molecule, the IC50 under setting [1] fell in the range of 10 to 100 nM.

As to `CC12COC(c3ccccc3)O[C@H]1CC[C@@]1(C)C2C[C@H](OC(=O)c2ccc(F)cc2)[C@@]2(C)Oc3cc(-c4cccnc4)oc(=O)c3[C@H](O)C12` (stereo partly shown) [PRD 048, 1,11-O-benzylidene-7-O-p-fluorobenzoyl-1,7,11-trideacetylpyripyropene A], the “Specific activity: (inhibitory activity of test compound)/(inhibitory activity of pyripyropene A)” value is “++ (10 > specific activity > 5)”. Under setting [1], this molecule yielded an IC50 of 10 to 100 nM.

Turning to `CC(=O)OCC1(C)C2C[C@H](OC(=O)c3ccc4c(c3)OC(F)(F)O4)[C@@]3(C)Oc4cc(-c5cccnc5)oc(=O)c4[C@H](O)C3[C@@]2(C)CC[C@@H]1OC(C)=O` (stereo partly shown) [PRD 036, 7-2,2-difluorobenzo[d][1,3]dioxol-5-carboxyl-7-deacetylpyripyropene A], the “Specific activity: (inhibitory activity of test compound)/(inhibitory activity of pyripyropene A)” value is given as “++ (10 > specific activity > 5)”. The IC50 under setting [1] lay in the range of 10 to 100 nM.

Take `COc1ccccc1C(=O)O[C@H]1CC2C(C)(COC(C)=O)[C@@H](OC(C)=O)CC[C@]2(C)C2[C@@H](O)c3c(cc(-c4cccnc4)oc3=O)O[C@@]21C` (stereo partly shown) [PRD 001, 7-o-methoxybenzoyl-7-deacetylpyripyropene A]: the “Specific activity: (inhibitory activity of test compound)/(inhibitory activity of pyripyropene A)” value is “+ (5 > specific activity > 1)”. For the same molecule, the IC50 under setting [1] lay in the range of 10 to 100 nM.

As for `CC(=O)OCC1(C)C(OC(C)=O)CC[C@@]2(C)C1C[C@H](OC(=O)c1ccc(C(N)=O)cc1)[C@@]1(C)Oc3cc(-c4cccnc4)oc(=O)c3[C@H](O)C21` (stereo partly shown) [PRD 111], the “Specific activity: (inhibitory activity of test compound)/(inhibitory activity of pyripyropene A)” value is listed as “+ (5 > specific activity > 1)”. The IC50 under setting [1] lay within 100 to 1000 nM.

Regarding `CC(=O)OCC1(C)C2C[C@H](OC(=O)c3ccc(Br)cc3)[C@@]3(C)Oc4cc(-c5cccnc5)oc(=O)c4[C@H](O)C3[C@@]2(C)CC[C@@H]1OC(C)=O` (stereo partly shown) [PRD 019, 7-p-bromobenzoyl-7-deacetylpyripyropene A], the “Specific activity: (inhibitory activity of test compound)/(inhibitory activity of pyripyropene A)” value is recorded as “+++ (50 > specific activity > 10)”.

For the molecule `CC(=O)OCC1(C)C2C[C@H](OC(=O)c3cccc(Br)c3)[C@@]3(C)Oc4cc(-c5cccnc5)oc(=O)c4[C@H](O)C3[C@@]2(C)CC[C@@H]1OC(C)=O` (stereo partly shown) [PRD 026, 7-m-bromobenzoyl-7-deacetylpyripyropene A], the “Specific activity: (inhibitory activity of test compound)/(inhibitory activity of pyripyropene A)” value is recorded as “++++ (100 > specific activity > 50)”. For the same molecule, the IC50 under setting [1] was less than 10 nM.
